In experiment [1] the test system is MT-MMP. The experiment can be described thus: Thiopeptolide assay of cell-associated gelatinase activity ascribed to MT-MMP in TM cells. The class given is cell-based, Rhesus monkey. To be noted: for Percent Activation Over control value: 48 hours incubation, OD 410 nm vs CACM control. Here is the method: Two days before molecule testing, the medium is replace by a defined, serum-free medium such as Minimum Essential Medium (MEM) containing defined supplements as described by Schachtschabel and Binninger, Z.f.Gerontol. […] Unless specifically noted, all molecules tested were prepared as stock solutions in dimethyl sulfoxide (DMSO) with a final concentration of 10 mg/ml. The stocks were stored in a dessicator at −20 degrees Celsius. In testing the molecules, the molecules were diluted to final concentrations of 0.3 ug/ml and 15 ug/ml in a simplified culture medium based on Ames' medium, called Concanavalin A (Con A) conditioning medium (CACM). The monkey TM cells were incubated with the test molecules for 48 hours. Control medium of CACM plus DMSO and a positive control with 5 ug/ml Con A plus DMSO were run in parallel. […] Next 100 uL of a doubly (2×) concentrated mixture of the thiopeptolide substrate (from a forty times (40×) concentrated DMSO stock, to give 1 mmol/L final concentration) freshly combined with the thiol reagent (5,5′dithiobis(2-nitrobenzoic acid (DTNB) from a twenty times (20×) concentrated DMSO stock to give 1 mmol/L) were added to each well and were incubated at 37 degrees Celsius for two hours with gentle agitation.
At the end of the incubation period, by means of a spectrophoto-metric plate reader, the optical density (OD) at 410 nm was determined for each well after automatic subtraction of a blank value for a well containing reaction mixture but without cells. The average OD at the two-hour end point for each test molecule at all concentrations in triplicate was calculated. This calculation was interpreted to be a measure of cell-associated MT-MMP level, equivalently defined as either its activity (a catalytic property of the enzyme) or expression (number of functional molecules). The percent difference in OD for each sample compared to the CACM control reflects the effectiveness of each test molecule or combination of molecules in eliciting increases in MT-MMP levels. As an alternate to the end point OD reading, one may use the mean rate of appearance of the reaction product (mean V), calculated from the best linear fit of the data to absorbance vs. time.
TM cells were exposed to molecules and combinations of molecules by means of simultaneous addition, from separate stocks, to incubation medium.

Experiment [2] relates to MT-MMP. The experiment can be described thus: Co-activation thiopeptolide assay (test compound with Con A or a second test compound) in TM cells. Format: cell-based, Rhesus monkey. An excerpt:
Concanavalin A (Con A) binds to mannose groups on cell membrane gycoproteins. Because of its tetravalent nature, Con A binding leads to oligomerization of these “receptors,” possibly in the form of heterogeneous aggregates. Con A stimulation elicits increased expression of MT-MMP with concomitant ability to activate proGelA. The response, as measured by the magnitude of zymographic bands and by thiopeptolide assay, is dose-dependent. Thus the effects of co-activation using a submaximal dose of Con A plus treatment with a small molecule that may or may not be active by itself, are measured in the subject activation assay.
For the coactivation assays, following the preliminary steps set forth above preceding incubation with test compounds in Example 1, cells subsequently undergo one of the following protocols. • Protocol 1. Cells are incubated with a particular test compound for twenty-four hours. This incubation period is followed by a second twenty-four hour incubation period, in which the culture medium containing the first test compound is completely replaced by medium containing 5 ug/ml Con A. • Protocol 2. Cells are incubated with a particular first test compound for twenty-four hours, followed by a second forty-eight hour incubation in which the medium containing the first test compound is completely replaced by medium containing either Con A, as described above, or a second test compound. • Protocol 3. Cells are incubated with a combination of a test compound together with 5 ug/ml Con A for forty-eight hours.
Two controls, with or without 5 ug/ml Con A are run in parallel as described in Example 1. After incubation with these agents, cells are processed in equivalently to those in Example 1. Instead of comparison of the OD values with a CACM control, the results are compared with samples using Con A alone, or with a single test compound as described in Protocol 2 above, as set forth in Table 5 below.

For experiment [3], the system named is MT1-MMP. The note with it: human cervical fibroblasts; Ito et al. 1998; cited from earlier work.
Experiment [4] deals with MT1-MMP. To be noted: Alexander and Acott 1999; cited from earlier work.

`Cc1cccc(Cl)c1/C=N/NC(=N)N` [Molecule 8]: the “Percent Activation Over control value” in the experiment with MT-MMP [1] (Conc. 2.6 umol/L) turned out to be 2.9%; in the experiment on MT-MMP [1] (Conc. 12.98 umol/L), 12.7%; in the experiment with MT-MMP [1] (Conc. 64.91 umol/L) it was 54.3%; in the experiment on MT-MMP [1] (Conc. 129.81 umol/L), 106.8%.

With `CC(C)N(CC(O)COc1cccc2ccccc12)C(N)=O` (stereo not shown) [Molecule 4], the figures for the “Percent Activation Over control value” with MT-MMP [1] (Conc. 1.0 umol/L) and with MT-MMP [1] (Conc. 49.6 umol/L) were 5.9% and 73.4%, respectively.

With `CC(C#N)c1ccc2c(c1)N(C)C1C=CC=CC1S2` (stereo not shown) [Molecule 13], the “Activity (% increase over Con A above, or as otherwise noted)” value is listed as 18.1% with MT-MMP [2] (Protocol 1 (24 h test compound, then 24 h 5 ug/ml Con A), Conc. 1.1 umol/L with Con A) and 109.5% with MT-MMP [2] (Protocol 1 (24 h test compound, then 24 h 5 ug/ml Con A), Conc. 55.9 umol/L with Con A). The “Percent Activation Over control value” in the experiment on MT-MMP [1] (Conc. 1.1 umol/L) came out at 74.6%; with MT-MMP [1] (Conc. 55.9 umol/L), 68.5%.

As to `N=C(N)NNC(O)c1c(Cl)cccc1Cl` (stereo not shown) [Molecule 12], the “Percent Activation Over control value” in the experiment on MT-MMP [1] (Conc. 1.05 umol/L) is 3.2%; in the experiment with MT-MMP [1] (Conc. 52.53 umol/L) it was 101.6%.

On to `N#C/C(=N\OC(=O)N1CCCCC1)c1c(F)cccc1F` [Molecule 2], for which the entries for the “Percent Activation Over control value” with MT-MMP [1] (Conc. 1.0 umol/L) and in the experiment on MT-MMP [1] (Conc. 51.1.1 umol/L) were 33.8% and 420.5%, respectively.

With `NCCCCCCNS(=O)(=O)c1cccc2c(Cl)cccc12` [Molecule W-7], the “MT1-MMP-induced activation of Gelatinase A (GelA)” value with MT1-MMP [3] is on record as “not particularly pronounced”.

Take `CSC(=N)N/N=C/c1c(Cl)cccc1Cl` [Molecule 11]: the “Percent Activation Over control value” is “(−20.9) Percent” in the experiment with MT-MMP [1] (Conc. 1.14 umol/L) and 88.1% in the experiment with MT-MMP [1] (Conc. 57.22 umol/L).

For `CCCCCCCCCCCCCC(=O)O[C@@H]1[C@@H](C)[C@@]2(O)[C@@H](C=C(CO)C[C@]3(O)C(=O)C(C)=C[C@@H]23)[C@@H]2C(C)(C)[C@]12OC(C)=O` [phorbol ester, phorbol 12-myristate 13-acetate], the “Expression of MT1-MMP” value with MT1-MMP [4] is “increased expression of MT1-MMP”.

Consider “Concanavalin A [Con A, reference compound]”, for which the “Increased expression of MT-MMP on Con A stimulation (response)” value in the experiment on MT-MMP [1] (measured by magnitude of zymographic bands and by thiopeptolide assay) is on record as “dose-dependent”.

Turning to `CNC(=O)N(CCOc1cccc(Cl)c1Cl)C(C)C` [Molecule 7], the “Activity (% increase over Con A above, or as otherwise noted)” value in the experiment on MT-MMP [2] (Protocol 2 (24 h test compound, then 48 h Con A), Conc. 49.1 umol/L with Con A) amounted to 59.8%. Moreover, the “Percent Activation Over control value” with MT-MMP [1] (Conc. 1.0 umol/L) is reported as “(−7.9) Percent”; with MT-MMP [1] (Conc. 49.2 umol/L) it was 274.0%.

With `COc1ccc(/C(C#N)=N/OC(=O)N2CCCCC2)cc1OC` [Molecule 1], the “Percent Activation Over control value” in the experiment with MT-MMP [1] (Conc. 0.9 umol/L) was found to be 48.1%; in the experiment on MT-MMP [1] (Conc. 47.31 umol/L), 260.4%.

Take `CC/C(=N\NC(=N)N)c1ccccc1` [Molecule 9]: the “Percent Activation Over control value” in the experiment with MT-MMP [1] (Conc. 1.18 umol/L) is on record as 21.4%; with MT-MMP [1] (Conc. 118.44 umol/L), 82.4%.

Consider `NC(=O)N1c2ccccc2C=Cc2ccccc21` [Molecule 14], for which the “Percent Activation Over control value” with MT-MMP [1] (Conc. 1.27 umol/L) is reported as 7.7%; in the experiment on MT-MMP [1] (Conc. 63.49 umol/L), 115.6%.

Take `CN1CCN(CCCN2c3ccccc3Sc3ccc(C(F)(F)F)cc32)CC1` [trifluoperazine]: the “MT1-MMP-induced activation of Gelatinase A (GelA)” value with MT1-MMP [3] was “resulted in MT1-MMP-induced activation of Gelatinase A”.

As to `CC(C)N(CCCOc1cccc2ccccc12)C(N)=O` [Molecule 6], the “Activity (% increase over Con A above, or as otherwise noted)” value was 183.9% in the experiment with MT-MMP [2] (Protocol 1 (24 h test compound, then 24 h 5 ug/ml Con A), Conc. 104.8 umol/L with Con A); 49.0% with MT-MMP [2] (Protocol 2 (24 h test compound, then 48 h Con A), Conc. 34.9 umol/L with Con A); 70.9% in the experiment with MT-MMP [2] (Protocol 2 (24 h test compound, then 48 h Con A), Conc. 100.0 umol/L with Con A). Further, the figures for the “Percent Activation Over control value” with MT-MMP [1] (Conc. 1.0 umol/L) and in the experiment on MT-MMP [1] (Conc. 52.4 umol/L) were 2.2% and 207.9%, respectively.

The values above are taken from patent publication US7071211B2, “Small organic molecules that increase the activity of gelatinase a in ocular cells” (Bausch & Lomb Inc., priority 2002, dated 2006).
